The values below come from patent US8791102B2, “Acetanilide sphingosine-1-phosphate receptor antagonists” (Exelixis, Inc., priority 2008, dated 2014).

T1 sequence (P21453 whole entry): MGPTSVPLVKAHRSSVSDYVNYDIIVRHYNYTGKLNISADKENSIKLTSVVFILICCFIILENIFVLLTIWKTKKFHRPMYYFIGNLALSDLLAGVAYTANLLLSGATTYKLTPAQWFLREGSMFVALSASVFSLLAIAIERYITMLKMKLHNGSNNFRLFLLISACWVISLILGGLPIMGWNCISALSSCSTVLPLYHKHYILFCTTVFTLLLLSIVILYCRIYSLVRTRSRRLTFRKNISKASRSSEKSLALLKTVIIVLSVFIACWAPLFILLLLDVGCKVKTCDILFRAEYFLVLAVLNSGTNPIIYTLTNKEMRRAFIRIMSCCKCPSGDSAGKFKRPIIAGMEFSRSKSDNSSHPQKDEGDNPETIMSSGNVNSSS

The test has as its target T1, human S1P1 receptors (Homo sapiens, UniProt P21453).
T1 construct: host or cells: HEK293
As to the kind of experiment: S1P1R antagonist assay (fluorescent membrane potential dye, cAMP readout). Particulars: HEK293 cells expressing human S1P1 receptors and CNG channel; 500 nM NECA; S1P1R agonist 10 nM; 90 minutes; read-out: EC50 or IC50 value. Format: cell-based.
On to `O=C(Nc1ccc(Oc2ccc(F)cc2)cc1)[C@@H]1C[C@@H](NCc2ccccc2)CN1C(=O)Cc1cnc[nH]1` [Compound 173, (2S,4R)-1-(2-(1H-imidazol-5-yl)acetyl)-4-(benzylamino)-N-(4-(4-fluorophenoxy)phenyl)pyrrolidine-2-carboxamide], for which the IC50 (usually the concentration at which inhibition is half-maximal) was no more than 300 nM.

For `COC(=O)c1ccc(C(=O)NC(COCc2ccccc2)C(=O)Nc2ccc(Oc3ccccc3)cc2)cc1` (stereo not shown) [Compound 397, methyl 4-{[(2-oxo-1-{[(phenylmethyl)oxy]methyl}-2-{[4-(phenyloxy)phenyl]amino}ethyl)amino]carbonyl}benzoate], the IC50 fell in the range of 300 to 1000 nM.

As for `O=C(Cc1cc(Cl)ccc1Cl)N[C@@H](COCc1ccccc1)C(=O)Nc1ccc(Oc2ccccc2)cc1` [Compound 199, (S)-2-(2-(2,5-dichlorophenyl)acetamido)-3-benzyloxy-N-(4-phenoxyphenyl)propanamide], the IC50 is 300 to 1000 nM.

For the compound `O=C(CCc1c[nH]c2ccccc12)NC(COCc1ccccc1)C(=O)Nc1ccc(Oc2ccccc2)cc1` (stereo not shown) [Compound 383, N-(2-oxo-1-{[(phenylmethyl)oxy]methyl}-2-{[4-(phenyloxy)phenyl]amino}ethyl)-3-(1H-indol-3-yl)propanamide], the IC50 is greater than 1000 nM.

For the compound `CC(C)CC(=O)N[C@@H](COCc1ccccc1)C(=O)Nc1ccc(Oc2ccc(F)cc2)cc1` [Compound 233, (S)—N-(3-(benzyloxy)-1-(4-(4-fluorophenoxy)phenylamino)-1-oxopropan-2-yl)-3-methylbutanamide], the IC50 was 300 to 1000 nM.

For `O=C(Cc1c[nH]cn1)N[C@@H](COCc1ccccc1)C(=O)Nc1ccc(Oc2ccc(F)cc2)cc1` [Compound 131, (S)-2-(2-(1H-imidazol-5-yl)acetamido)-3-benzyloxy-N-(4-(4-fluorophenoxy)phenyl)propanamide], the IC50 is no more than 300 nM.

As for `COc1ccc(CCC(=O)NC(COCc2ccccc2)C(=O)Nc2ccc(Oc3ccccc3)cc2)cc1` (stereo not shown) [Compound 304, N-(2-oxo-1-{[(phenylmethyl)oxy]methyl}-2-{[4-(phenyloxy)phenyl]amino}ethyl)-3-(4-methoxyphenyl)propanamide], the IC50 is greater than 1000 nM.

Regarding `CN(C)c1ccc(CC(=O)N2C[C@H](Cc3ccccc3)C[C@H]2C(=O)Nc2ccc(Oc3ccc(F)cc3)cc2)cc1` [Compound 35, (2S,4R)-4-benzyl-1-(2-(4-(dimethylamino)phenyl)acetyl)-N-(4-(4-fluorophenoxy)phenyl)pyrrolidine-2-carboxamide], the IC50 was no more than 300 nM.

With `O=C(Cc1c[nH]cn1)N[C@@H](COCc1ccccc1)C(=O)Nc1ccc(Oc2ncc(Br)s2)cc1` [Compound 156, (S)-2-(2-(1H-imidazol-4-yl)acetamido)-3-(benzyloxy)-N-(4-(5-bromothiazol-2-yloxy)phenyl)propanamide], the IC50 is no more than 300 nM.

In the case of `O=C(Cc1c[nH]cn1)N[C@@H](COCc1ccc(F)cc1)C(=O)Nc1ccc(Oc2ccc(Cl)cc2)cc1` [Compound 132, (S)-2-(2-(1H-imidazol-5-yl)acetamido)-3-(4-fluorobenzyloxy)-N-(4-(4-chlorophenoxy)phenyl)propanamide], the IC50 is no more than 300 nM.

Regarding `O=C(CSCc1ccccc1)NC(COCc1ccccc1)C(=O)Nc1ccc(Oc2ccccc2)cc1` (stereo not shown) [Compound 374, N-(2-oxo-1-{[(phenylmethyl)oxy]methyl}-2-{[4-(phenyloxy)phenyl]amino}ethyl)-2-(benzylthio)acetamide], the IC50 is greater than 1000 nM.

Consider `O=C(Nc1ccc(Oc2ccc(F)cc2)cc1)[C@@H]1C[C@@H](Cc2ccccc2)CN1C(=O)CN1CCc2ccccc2C1` [Compound 82, (2S,4R)-4-benzyl-1-(2-(3,4-dihydroisoquinolin-2(1H)-yl)acetyl)-N-(4-(4-fluorophenoxy)phenyl)pyrrolidine-2-carboxamide], for which the IC50 was no more than 300 nM.

Regarding `CC1CN(CC(=O)N[C@@H](COCc2ccccc2)C(=O)Nc2ccc(Oc3ccc(F)cc3)cc2)CC(C)O1` (stereo partly drawn) [Compound 265, (2S)-3-(benzyloxy)-2-(2-(2,6-dimethylmorpholino)acetamido)-N-(4-(4-fluorophenoxy)phenyl)propanamide], the IC50 is no more than 300 nM.
